According to patent US20220125754A1, “TREATING THE CAUSATIVE AGENT IN ADHESIOGENESIS” (Helmholtz Zentrum München - Deutsches Forschungszentrum Für …, priority 2019, published 2022):

Key:
Met-5A cells = test: Adhesion propagation assay (nanoluciferase expressing Met-5A cells); assay type: cell-based, human; details: for transmissibility: 10 μM, 24 hours, adhesion propagation assay (FIG. 6D) and Cre-exchange transmission assay (FIG. 6E)
Description: […] After 24 hours, unbound carriers were washed away and nanoluciferase luminescence was measured. This represents the initial stress-dependent transmitted adhesion.
[…] Carriers were then separated from the monolayer and placed on an unstressed Met-5A wild-type monolayer. After 24 hours, unbound beads were washed away and nanoluciferase luminescence was measured. This represents the first stress-independent transmitted adhesion.
Carriers were then separated from the monolayer and placed on unstressed cell-covered beads stably expressing nanoluciferase (AF1) for 3 hours. Carriers were then isolated once more and placed on an unstressed Met-5A monolayer stably expressing the dTomato-P2A-NanoLuciferase reporter construct (AF34). Unbound beads were then washed away and nanoluciferase luminescence was measured after 24 hours. This represents the second stress-independent transmitted adhesion.
This procedure was continued similarly for the consecutive third and fourth transmissions.
First, repeated consecutive mixing experiments were performed with nanoluciferase-expressing Met-5A cells to study the extent of adhesion propagation. When unstressed cells were exposed to heliocytes, and then separated, they were fully able to generate adhesions even though they had not themselves experienced stress (FIG. 3F). Pharmacological inhibition of HIF-1α signaling has been one of the few proposed intervention routes to reduce adhesion burden^16, thus it was tested to see whether the HIF-1α inhibitor echinomycin could inhibit transmissibility. […] Transmission occurred rapidly, as unstressed cells only had to be exposed to heliocytes for a total of 90 min for successful transmission to occur and allow them to form adhesions themselves (FIG. 3H). Second, two additional cell lines were generated, one expressing Cre recombinase and one expressing a stop codon flanked by two LoxP sites followed by a dTomato-P2A-Nanoluciferase. In this transmission assay, Cre recombinase only drives dTomato-P2A-Nanoluc expression if extensive cytoplasmic mixing occurs that allows Cre recombinase protein to be transferred and shuttled into the nucleus of the dTomato-P2A-Nanoluc cells. Indeed, extensive dTomato fluorescence was observed 3 hours after unstressed carriers were seeded onto a stressed monolayer (FIG. 3I). Under consecutive mixing conditions, like the propagation set-up, naive cells receiving cellular contents from heliocytes could in turn transmit to other cells independently from HIF-1α signaling, for a total of three rounds after the original stress stimulus (FIGS. 3J and K). Because cytoskeletal networks and membrane shuffling are extremely sensitive to shifts in available calcium^17, it was asked whether calcium signaling underlies heliocyte formation and filipodial extensions, using two independent approaches.

adhesion formation = test: Murine adhesion model (total adhesion score); assay type: in vivo, mice; details: for adhesion formation (adhesion score): daily intraperitoneal injection, day 5 after injury (FIG. 9)
Description: Small molecule inhibitors were solubilized in sterile 2% hydroxyethyl-cellulose (Sigma Aldrich, #09368). Compounds were being added immediately prior to surgery, and were derived from a 100-150 mM stock solution to minimize the final DMSO content. The final solution (200 μL per 30 g body weight) was sandwiched between the visceral and parietal layer of the injured cecum and peritoneum respectively.
Mice were anesthetized by an intraperitoneal injection of a Medetomidin (500 μg/kg), Midazolam (5 mg/kg) and Fentanyl (50 μg/kg) cocktail, hereafter referred to as MMF. Monitoring anesthetic depth was assessed by toe reflex. Eyes were covered with Bepanthen to avoid dehydration, and the abdomen was shaved and disinfected with betadine and sterile phosphate buffered saline (PBS). Animals were kept on their backs on a heating plate at 37° C. A midline laparotomy (1-1.5 cm) was performed through the skin and peritoneum. Four hooks, positioned around the incision and fixed to a retractor and magnetic base plate, allowed for clear access to the abdominal cavity. A small surgical brush was used to gently abrade the peritoneal surface and apposing cecal surface. Two surgical knots using 4-0 silk sutures (Ethicon) were then placed through the serosal surface of the peritoneum. A cotton swab was used to gently apply a dab of talc powder (Sigma Aldrich, #243604) onto the injured surfaces. Before closure of the incision, buprenorphine (0.1 mg/kg) was pipetted in the abdomen to allow for initial post-surgical analgesia. For long-term analgesia, metamizol (Novalgin, 200 mg/kg) was provided through daily injection. The peritoneum and skin were closed with two separate 4-0 silk sutures (Ethicon). Upon closure of the incision, mice were woken up by antagonizing the MMF solution through a subcutaneous cocktail injection of Atipamezol (1 mg/kg) and Flumazenil (0.25 mg/kg). Mice were allowed to recover on a heating pad, after which they were housed together (females) or individually (males), and followed for 1-5 days. Adhesions were scored using gross morphological features that indicated adhesion development. Five individual adhesion features were scored (see table below) that together provided a cumulative value that determined the total adhesion score. With this system, complete absence of adhesions were scored as 0, whereas the maximum adhesion score was 15.
Mice were anesthetized by an intraperitoneal injection of a Medetomidin (500 μg/kg), Midazolam (5 mg/kg) and Fentanyl (50 μg/kg) cocktail, hereafter referred to as MMF. Monitoring anesthetic depth was assessed by toe reflex. Eyes were covered with Bepanthen to avoid dehydration, and the abdomen was shaved and disinfected with betadine and sterile phosphate buffered saline (PBS). Animals were kept on their backs on a heating plate at 37° C. A midline laparotomy (1-1.5 cm) was performed through the skin and peritoneum. Four hooks, positioned around the incision and fixed to a retractor and magnetic base plate, allowed for clear access to the abdominal cavity. A small surgical brush was used to gently abrade the peritoneal surface and apposing cecal surface. Two surgical knots using 4-0 silk sutures (Ethicon) were then placed through the serosal surface of the peritoneum. A cotton swab was used to gently apply a dab of talc powder (Sigma Aldrich, #243604) onto the injured surfaces. Before closure of the incision, buprenorphine (0.1 mg/kg) was pipetted in the abdomen to allow for initial post-surgical analgesia. […]

[1] = test system: caspase3 activity in heliocytes; test: Caspase3 activity reporter assay (nanoluciferase-caspase3 cleavage site-degradation peptide); assay type: cell-based, human; details: stressed mesothelial cells (heliocytes), compared to control (FIG. 12)
Description: Then, determination of caspase3 activity in heliocytes was performed. Cells stably expressing a nanoluciferase-caspase3-cleaving-site-degredation-peptide (FIG. 12) were grown on beads seeded onto a Met-5A monolayer. After 24 h nanoluciferase activity was determined. The degradation peptide leads to constitutive degradation of nanoluciferase, active caspase3 cleaves the protein linker, thus removing the degradation signal, leading to increased nanoluciferase amount.
(§1) In order to test listed inhibitor treatments for potential unwanted side effects, in vitro as well as in vivo apoptosis readouts were performed. […] Next, fragmented DNA amounts in the in vitro adhesions were determined, staurosporine representing as the positive control. […] Apoptosis signaling cascades dependent on caspase3 protease activity. To screen caspase3 activity in a high throughput manner, a new functional screening assay was developed. The assay is based on a nanoluciferase fused to a degradation signaling peptide interlinked with caspase3 cleavage sites. Once activated, caspase3 cleaves protein linker, removes the degradation signal and prevents proteasomal digestion of the nanoluciferase.

[2] = test system: heliocytes (stressed Met-5A mesothelial cells); test: Protrusion development in desiccation-stressed Met-5A cells expressing membranous GFP (epi-fluorescence); assay type: cell-based, human; details: 10 μM, 24 hours, desiccation stress (FIG. 6B)
Description: (§2) FIG. 6: Single-cell transcriptomics of heliocytes. A) Overview of the Dropseq workflow. B) Epi-fluorescent representative images of Met-5A cells stably expressing membranous GFP, stressed with desiccation and treated with small-molecule compounds for 24 hours (10 μM). Scale bar, 10 μm. C) Desiccation shock induces small-molecule sensitive carrier-carrier aggregation as assessed with a high-throughput nanoluciferase assay. ID) Adhesion propagation assay (see methods) with nanoluciferase expressing Met-5A cells after treatment with small molecule inhibitors for 24 hours (10 μM). E) Cre-exchange transmission assay (see methods) with Cre-recombinase and Cre-dependent nanoluciferase expressing Met-5A cells after treatment with small molecule inhibitors for 24 hours (10 μM).
Met-5A cells were seeded on gelatin (Sigma Aldrich, #G1393) coated dishes. Once a confluent monolayer was established, stressed cell-covered beads were seeded onto the monolayer. For the inhibitory experiments, if not indicated otherwise, monolayer cells were pretreated with the indicated compound for 30 minutes in culture medium. Afterwards the adhesion assay was performed as described above.
Mesothelial protrusion analysis was performed using the Advanced weka segmentation Fiji plugin^37. It utilizes a collection of machine learning algorithms for segmentation. Specifically, pixel-based segmentation is based on image features annotated to different classes. Pixel samples were free drawn and assigned to respective classes, e.g. ‘filopodia’, ‘cell body’, or ‘background’. Subsequent rounds of training were performed to allot respective pixels and structures to its corresponding classes for improved segmentation. Training features, such as ‘Gaussian blur’, ‘Sobel filter’, ‘Hessian’, ‘Difference of Gaussians’ and ‘Membrane projections’ were applied along with default classifier ‘Fast Random Forest’. Other settings were kept as default (membrane thickness 1, membrane patch size 19, minimum sigma 1.0, and maximum sigma 16.0). The trained classifier and data were saved for analysis of other ‘stressed’ and ‘unstressed’ mesothelial datasets. A macro was written to automate the above steps for other datasets with pause for 5 seconds (wait(5000) function) after each step for smooth processing. Images from the segmented classes were extracted and subjected to post processing.
In order to identify underlying mechanisms of heliocyte transformation, differential gene expression analysis was performed using a likelihood-ratio test for single cell gene expression data^21. This identified 1644 genes that were regulated in stressed cells at one or more time points (FDR<10%). […]

[3] = test system: Met-5A cells on microcarrier beads; test: High-throughput carrier-carrier adhesion assay (nanoluciferase); assay type: cell-based, human; details: desiccation shock, high-throughput nanoluciferase assay (FIG. 6C)
Description: as §2
Cells were incubated with ice cold luciferase lysis buffer (25 mM Tris-HCL pH 7.8, 1% Triton X-100, 15 mM MgSO4, 4 mM EGTA, 1 mM DTT) for 20 minutes. Both assays were performed in a 96-wells plate format. Luciferase firefly substrate was dissolved in PBS, and consisted of 20 mM Tricine, 2.67 mM MgSO4, 0.1 mM EDTA, 33.3 mM DTT, 0.52 mM ATP, 0.27 mM Acetyl-CoA, 5 mM NaOH, […], and 0.47 mM D-Luciferin (Carl Roth, #CN24.3). For nanoluciferase, the substrate solution included 47.2 μM Coelenterazine (Carl Roth, #4094.4). Luminescence was detected after 5 minutes of substrate and lysate co-incubation using the TriStar^2 LB 942 Modular Multimode microplate reader (Berthold Technologies).
Met-5A cells were seeded together with Cytodex® 3 microcarrier beads (Sigma Aldrich, #03275) in a ratio of 500:1, and allowed to adhere and grow for 5 days. Cell-covered beads were then eluted from the culture dish using a 25 mL stripette. The resulting solution was strained through a 100 μm cell strainer (Corning, #352360). […] was induced by placing the bead-containing cell strainer under a running cell culture flow hood for 15 minutes. Afterwards, beads were eluted with assay medium and placed in a cultivation dish coated with HEMA silicate solution (Sigma Aldrich, #P3932), to prevent cell attachment. After indicated time points, carrier complexes were collected by filtering them through a 200 μm cell strainer, which allows individual carriers to pass, while trapping carrier complexes. Adhesions were measured in a high throughput manner through the use of Met-5A cells stably expressing luciferase (AF23) or nanoluciferase (AF1) using Integra Viaflo pipettes.

[4] = test system: stressed mesothelial cells (heliocytes); test: Apoptosis assay: fragmented DNA (Cell Death Detection ELISA) in in vitro bead assay; assay type: cell-based, human; details: 10 μM, stressed mesothelial cells (FIG. 11)
Description: FIG. 11: Apoptosis Assay. Measurement of fragmented DNA as indicator for apoptosis after 5 days having applied CK666, Golgicide A, Rhosin, Bepridil, Heat shock protein inhibitor 1 (HIS-1) using the in vitro bead assay. Stautosporin serves as a positive control.
Met-5A cells were seeded on gelatin (Sigma Aldrich, #G1393) coated dishes. Once a confluent monolayer was established, stressed cell-covered beads were seeded onto the monolayer. For the inhibitory experiments, if not indicated otherwise, monolayer cells were pretreated with 10 μM of indicated compounds for 30 minutes in culture medium. After 24 h fragmented DNA was determined via Cell Death Detection […] (Sigma Aldrich, #11774425001).
as §1

Compound: CS[C@H]1SC[C@H]2C(=O)N(C)[C@@H](C(C)C)C(=O)OC[C@@H](NC(=O)c3cnc4ccccc4n3)C(=O)N[C@@H](C)C(=O)N(C)[C@@H]1C(=O)N(C)[C@@H](C(C)C)C(=O)OC[C@@H](NC(=O)c1cnc3ccccc3n1)C(=O)N[C@@H](C)C(=O)N2C [echinomycin]
- initial desiccation-induced transmission (Met-5A cells; HIF-1α inhibition (FIG. 3G)): could be prevented

Compound: CNc1ccc([N+](=O)[O-])c(Nc2ccc3[nH]ncc3c2)n1 [KRIBB11]
- adhesion score (adhesion formation; single application of 10 nM in 2% cellulose, topical, 5 days after injury (FIG. 16)): shows no effect

Compound: CN[C@@H]1C[C@H]2O[C@@](C)([C@@H]1OC)n1c3ccccc3c3c4c(c5c6ccccc6n2c5c31)C(=O)NC4 [Staurosporine]
- caspase3 activity (nanoluciferase activity of reporter) [1]: enhanced nanoluciferase activity

Compound: Rhosin
- protrusion development in heliocytes [2]: completely blocked
- adhesion formation (carrier-carrier aggregation) [3]: completely blocked
- transmissibility (Met-5A cells): completely blocked
- fragmented DNA (indicator for apoptosis) [4]: significantly more fragmented DNA
- caspase3 activity (nanoluciferase activity of reporter) [1]: higher caspase3 activity
- adhesion formation (adhesion score) (adhesion formation): robustly inhibited adhesion formation

Compound: Fc1cc(F)c2c(c1)C1C=CCC1C(c1cccnc1)N2 (stereo not drawn) [Golgicide A]
- protrusion development in heliocytes [2]: completely blocked
- adhesion formation (carrier-carrier aggregation) [3]: completely blocked
- transmissibility (Met-5A cells): completely blocked
- adhesion formation (adhesion score) (adhesion formation): robustly inhibited adhesion formation

Compound: Cc1[nH]c2ccccc2c1CCNC(=O)c1ccccc1F [CK-666]
- protrusion development in heliocytes [2]: completely blocked
- adhesion formation (carrier-carrier aggregation) [3]: completely blocked
- transmissibility (Met-5A cells): completely blocked
- adhesion formation (adhesion score) (adhesion formation): robustly inhibited adhesion formation

Compound: CC(C)COCC(CN(Cc1ccccc1)c1ccccc1)N1CCCC1 (stereo not drawn) [Bepridil]
- protrusion development in heliocytes [2]: completely blocked
- adhesion formation (carrier-carrier aggregation) [3]: completely blocked
- transmissibility (Met-5A cells): completely blocked
- adhesion formation (adhesion score) (adhesion formation): robustly inhibited adhesion formation
